Data published in US8298781B2, “Compositions and methods for characterizing and regulating olfactory sensation” (Duke University, priority 2007, dated 2012).

Target: T1, OR7D4 S84N (Homo sapiens, UniProt Q8NG98, S84N)
T1 sequence (Q8NG98 1-312 S84N): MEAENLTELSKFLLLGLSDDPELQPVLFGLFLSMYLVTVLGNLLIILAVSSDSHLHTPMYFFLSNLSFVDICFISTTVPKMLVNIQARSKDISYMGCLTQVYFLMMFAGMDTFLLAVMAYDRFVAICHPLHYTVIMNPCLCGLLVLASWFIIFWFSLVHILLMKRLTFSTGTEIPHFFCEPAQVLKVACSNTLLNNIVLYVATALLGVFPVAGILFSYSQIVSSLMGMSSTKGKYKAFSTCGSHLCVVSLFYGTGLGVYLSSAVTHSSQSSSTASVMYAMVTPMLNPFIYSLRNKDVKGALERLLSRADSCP
Experiment: Luciferase assay dose response, OR7D4 S84N
Format: cell-based
Conditions: exceeding the activity of RT variant at every concentration tested
Text: Heterologous expression of human odorant receptors. 423 human odorant receptors including 337 predicted functional receptors were cloned. Odorant receptors that contained the first 20 amino acid of human rhodopsin (see, e.g., Krautwurst, D., et al., Cell 95, 917-926 (1998); herein incorporated by reference in its entirety) in pCl (Promega) were expressed in the Hana3A cell line along with a short form of mRTP1, RTP1S, (M37 to the C-terminal end), which enhanced functional expression of the odorant receptors. For immunocytochemistry, cells were fixed, permeabilized and incubated with monoclonal anti-rhodopsin antibody, 4D2 (see, e.g., Laird, D. W., et al., Invest Opthalmol Vis Sci 29.419428 (1988); herein incorporated by reference in its entirety), followed by Cy3-conjugated donkey anti-mouse IgG (Jackson Immunologicals). […]
Luciferase assay and data analysis. […] Luminescence was measured using Wallac Victor 1420 (Perkin-Elmer). Normalized luciferase activity was calculated by the formula [luc(N)-luc(lowest)]/luc(highest)/RL (N) where luc(N)=luminescence of luciferase of a certain well; luc(lowest)=lowest luminescence of luciferase of a plate or a set of plates; luc(highest)=highest luminescence of luciferase of a plate or a set of plates; RL(N)=luminescence of Renilla luciferase of a certain well. Data was analyzed with Microsoft Excel and GraphPad Prism 4.

Compound | dose-response sensitivity of OR7D4 S84N in vitro
C[C@@]12C=CC[C@H]1[C@@H]1CCC3=CC(=O)CC[C@]3(C)[C@H]1CC2 [androstadienone, androsta-4,16-dien-3-one] | remarkable sensitivity
C[C@]12CCC(=O)C[C@@H]1CC[C@@H]1[C@@H]2CC[C@]2(C)C=CC[C@@H]12 [androstenone, 5α-androst-16-en-3-one] | remarkable sensitivity
